We go through 8 molecules from patent US20240018135A1, “COMPOUND HAVING INHIBITORY ACTIVITY AGAINST O-GLUSACASE AND USE THEREOF” (MEDIFRON DBT INC., priority 2020, published 2024).

What is called Ki is a dissociation constant, usually derived from enzyme kinetics or from competition with a known ligand. As a reminder, the melting point is the temperature, or range, at which the solid turns liquid. As usually defined, the IC50 is the concentration needed to halve the response being measured.

In one data set the target is human O-GlcNAcase (Homo sapiens (Human), UniProt O60502). The conditions noted are these: cited from earlier work.
human O-GlcNAcase, sequence (O60502 whole entry): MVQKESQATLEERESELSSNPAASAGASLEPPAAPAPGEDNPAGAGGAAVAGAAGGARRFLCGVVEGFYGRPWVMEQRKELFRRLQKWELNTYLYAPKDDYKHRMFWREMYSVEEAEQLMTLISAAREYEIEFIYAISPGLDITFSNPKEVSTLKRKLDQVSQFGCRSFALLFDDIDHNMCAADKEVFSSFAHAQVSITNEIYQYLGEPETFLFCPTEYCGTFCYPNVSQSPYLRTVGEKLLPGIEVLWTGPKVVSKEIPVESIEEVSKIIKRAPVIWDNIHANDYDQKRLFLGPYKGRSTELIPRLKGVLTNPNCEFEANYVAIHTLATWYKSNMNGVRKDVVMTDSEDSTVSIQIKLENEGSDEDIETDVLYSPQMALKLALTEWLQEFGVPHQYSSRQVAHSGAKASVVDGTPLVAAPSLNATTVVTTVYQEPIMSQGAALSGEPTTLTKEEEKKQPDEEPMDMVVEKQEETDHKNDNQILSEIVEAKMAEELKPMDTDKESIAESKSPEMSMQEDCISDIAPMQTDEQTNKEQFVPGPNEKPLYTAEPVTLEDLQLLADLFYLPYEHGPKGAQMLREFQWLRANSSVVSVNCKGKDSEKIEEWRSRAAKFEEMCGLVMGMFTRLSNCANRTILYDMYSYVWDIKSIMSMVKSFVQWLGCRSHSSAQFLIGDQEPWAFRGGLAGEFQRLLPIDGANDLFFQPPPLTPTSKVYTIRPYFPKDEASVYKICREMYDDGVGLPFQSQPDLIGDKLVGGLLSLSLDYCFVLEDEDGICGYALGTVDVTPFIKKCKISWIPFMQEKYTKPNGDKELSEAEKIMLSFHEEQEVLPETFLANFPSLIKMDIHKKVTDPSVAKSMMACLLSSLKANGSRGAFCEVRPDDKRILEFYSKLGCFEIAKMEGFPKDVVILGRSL
For data set [1], the target named is Human OGA (recombinant hOGA protein) (Homo sapiens (Human), UniProt O60502). Briefly: Human OGA enzyme activity assay (fluorescence, 4-Methylumbelliferyl N-acetyl-β-D-glucosaminide substrate). It is filed as biochemical. The conditions noted are these: for % of inhibition: Table 1, test concentration not given; for IC50: Table 1.
Human OGA (recombinant hOGA protein), sequence (O60502 whole entry): as above
Data set [2] addresses bacterial homolog of O-GlcNAcase from Clostridium perfringens (Clostridium perfringens (strain 13 / Type A), UniProt Q8XL08). The conditions noted are these: cited from earlier work.

bacterial homolog of O-GlcNAcase from Clostridium perfringens, sequence (Q8XL08 31-1001 limits assumed): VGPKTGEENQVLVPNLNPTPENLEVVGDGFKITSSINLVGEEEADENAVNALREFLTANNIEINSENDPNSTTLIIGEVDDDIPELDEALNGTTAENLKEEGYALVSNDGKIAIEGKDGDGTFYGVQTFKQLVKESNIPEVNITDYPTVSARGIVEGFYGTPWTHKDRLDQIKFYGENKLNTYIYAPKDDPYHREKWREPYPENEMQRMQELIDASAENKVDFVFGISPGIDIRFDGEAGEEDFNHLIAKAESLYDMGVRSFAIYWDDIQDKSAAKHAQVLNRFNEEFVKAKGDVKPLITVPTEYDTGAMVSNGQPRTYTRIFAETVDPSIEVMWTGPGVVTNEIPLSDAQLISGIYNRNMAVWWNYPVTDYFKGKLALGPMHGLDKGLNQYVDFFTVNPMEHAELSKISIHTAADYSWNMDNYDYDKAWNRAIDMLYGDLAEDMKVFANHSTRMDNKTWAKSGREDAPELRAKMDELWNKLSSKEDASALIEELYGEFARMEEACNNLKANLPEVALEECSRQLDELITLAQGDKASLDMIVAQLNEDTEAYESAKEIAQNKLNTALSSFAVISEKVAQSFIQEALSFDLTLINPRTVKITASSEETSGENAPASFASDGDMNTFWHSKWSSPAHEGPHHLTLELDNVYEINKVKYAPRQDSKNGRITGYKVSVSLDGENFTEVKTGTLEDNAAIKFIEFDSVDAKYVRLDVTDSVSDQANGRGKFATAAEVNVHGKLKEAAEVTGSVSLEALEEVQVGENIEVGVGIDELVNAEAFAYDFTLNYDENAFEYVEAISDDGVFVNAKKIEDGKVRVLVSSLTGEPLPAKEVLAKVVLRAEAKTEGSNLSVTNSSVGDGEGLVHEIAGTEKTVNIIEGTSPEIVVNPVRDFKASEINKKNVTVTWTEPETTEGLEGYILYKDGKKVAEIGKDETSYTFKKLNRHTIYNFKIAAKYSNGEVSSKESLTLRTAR

Regarding `CC(=O)N[C@H]1c2nc(CC(=O)O)cn2[C@H](CO)[C@@H](O)[C@@H]1O` [gluco-nagstatin], the inhibition constant Ki on human O-GlcNAcase is 420 nM.

Molecule `CC(=O)Nc1ncc(CN2CCN(CC(=O)Nc3nc4ccccc4[nH]3)CC2)s1` [Compound A-26, 2-(4-((2-acetamidothiazol-5-yl)methyl)piperazin-1-yl)-N-(1H-benzo[d]imidazol-2-yl)acetamide] showed a melting point of 233 to 236 °C. Also, in data set [1], the “% of inhibition” value amounted to 62.6%.

As for `CC(=O)Nc1ncc(CN2CCN(CC(=O)Nc3nc4c(Cl)cccc4s3)CC2)s1` [Compound A-30, 2-(4-((2-acetamidothiazol-5-yl)methyl)piperazin-1-yl)-N-(4-chlorobenzo[d]thiazol-2-yl)acetamide], the melting point lay within 255 to 257 °C. For the same molecule, the “% of inhibition” value in data set [1] is on record as 42.6%.

Regarding `COc1cccc(NC(=O)CN2CCN(Cc3cnc(NC(C)=O)s3)CC2)c1` [Compound A-9, 2-(4-((2-acetamidothiazol-5 yl)methyl)piperazin-1-yl)-N-(3-methoxyphenyl) acetamide.], the melting point lay in the range of 210 to 212 °C. For the same molecule, in data set [1], the “% of inhibition” value was determined as 59.9%.

With `CC(=O)Nc1ncc(CN2CCN(CC(=O)Nc3ccc(Cc4ccccc4)cc3)CC2)s1` [Compound A-38, 2-(4-((2-acetamidothiazol-5-yl)methyl)piperazin-1-yl)-N-(4-benzylphenyl)acetamide], the melting point fell in the range of 132 to 134 °C. In data set [1], the IC50 stood at 370 nM and the “% of inhibition” value came to 90.8%.

Molecule `CC(=O)Nc1ncc(CN2CCC(C(=O)NC(C)c3ccc4c(c3)OCO4)CC2)s1` (centres unmarked) [Compound B-9, 1-((2-acetamidothiazol-5-yl)methyl)-N-(1-(benzo[d][1,3]dioxol-5-yl)ethyl)piperidine-4-carboxamide] came in with a melting point of 211 to 213 °C. For the same molecule, in data set [1], the IC50 was 1010 nM and the “% of inhibition” value worked out at 93.1%.

With `CC(=O)Nc1ncc(CN2CCC(C(=O)OC(C)c3ccc4c(c3)OCO4)CC2)s1` (centres unmarked) [Compound B-13, 1-(benzo[d][1,3]dioxol-5 yl)ethyl 1-((2-acetamidothiazol-5-yl)methyl)piperidine-4-carboxylate], the melting point lay in the range of 215 to 217 °C. For the same molecule, in data set [1], the IC50 came to 60 nM and the “% of inhibition” value is given as 98.9%.

`CC(C)C(=O)N[C@H]1c2nc(CCc3ccccc3)cn2[C@H](CO)[C@@H](O)[C@@H]1O` [GlcNAcstatin]: in data set [2], the efficacy result is on record as “picomolar”.
